From patent publication EP4745137A1 (Gluetacs Therapeutics (Shanghai) Co., Ltd., priority 2023, dated 2025)

Assays:
WEE1 = target: T1, WEE1 (Homo sapiens, UniProt P30291+Q96SW2); assay: Western-blot assay of substrate protein degradation in hPBMCs, WEE1; type: cell-based; details: 24 hours of compound treatment, compounds tested at 50 nM and 500 nM (concentration of the table not stated)
T1 construct: endogenous in cells; host or cells: hPBMCs (Milecell Biotechnologies)

IKZF1 = target: T2, IKZF1 (Homo sapiens, UniProt Q13422+Q96SW2); assay: Western-blot assay of substrate protein degradation in hPBMCs, IKZF1; type: cell-based; details: 24 hours of compound treatment, compounds tested at 50 nM and 500 nM (concentration of the table not stated)
T2 construct: endogenous in cells; host or cells: hPBMCs (Milecell Biotechnologies)

IKZF2 = target: T3, IKZF2 (Homo sapiens, UniProt Q96SW2+Q9UKS7); assay: Western-blot assay of substrate protein degradation in hPBMCs, IKZF2; type: cell-based; details: 24 hours of compound treatment, compounds tested at 50 nM and 500 nM (concentration of the table not stated)
T3 construct: endogenous in cells; host or cells: hPBMCs (Milecell Biotechnologies)

IKZF3 = target: T4, IKZF3 (Homo sapiens, UniProt Q96SW2+Q9UKT9); assay: Western-blot assay of substrate protein degradation in hPBMCs, IKZF3; type: cell-based; details: 24 hours of compound treatment, compounds tested at 50 nM and 500 nM (concentration of the table not stated)
T4 construct: endogenous in cells; host or cells: hPBMCs (Milecell Biotechnologies)

CK1α = target: T5, CK1α (Homo sapiens, UniProt P48729+Q96SW2); assay: Western-blot assay of substrate protein degradation in hPBMCs, CK1α; type: cell-based; details: 24 hours of compound treatment, compounds tested at 50 nM and 500 nM (concentration of the table not stated)
T5 construct: endogenous in cells; host or cells: hPBMCs (Milecell Biotechnologies)

GSPT1 = target: T6, GSPT1 (Homo sapiens, UniProt P15170+Q96SW2); assay: Western-blot assay of substrate protein degradation in hPBMCs, GSPT1; type: cell-based; details: 24 hours of compound treatment, compounds tested at 50 nM and 500 nM (concentration of the table not stated)
T6 construct: endogenous in cells; host or cells: hPBMCs (Milecell Biotechnologies)

[1] = target: T7, human Cereblon WT GST-tagged protein (Homo sapiens, UniProt Q96SW2); assay: CRBN-binding affinity by HTRF (CEREBLON BINDING kit); details: HTRF inhibitory activity, CEREBLON BINDING kit; read-out: HTRF IC50
T7 construct: purchased CISBIO 64BDCRBNPEH

MM.1R = assay: Tumor cell proliferation inhibition (CellTiter-Meiluncell Luminescent Cell Viability Assay), MM.1R; details: Homo sapiens, 96 h, read-out: inhibitory activity (IC50, nM) against tumor cells proliferation, MM.1R
Jurkat = assay: Tumor cell proliferation inhibition (CellTiter-Meiluncell Luminescent Cell Viability Assay), Jurkat; details: Homo sapiens, 96 h, read-out: inhibitory activity (IC50, nM) against tumor cells proliferation, Jurkat
CAL-62 = assay: Tumor cell proliferation inhibition (CellTiter-Meiluncell Luminescent Cell Viability Assay), CAL-62; details: Homo sapiens, CAL-62, 96 h, read-out: inhibitory activity (IC50, nM) against tumor cells proliferation, CAL-62
[2] = system: Human acute T lymphocytic leukemia cells (Molt-4); assay: Tumor cell proliferation inhibition (CellTiter-Meiluncell Luminescent Cell Viability Assay), Molt-4; details: MOLT-4, 96 h, read-out: inhibitory activity (IC50, nM) against tumor cells proliferation, Molt 4

T4 sequence (Q9UKT9 whole entry): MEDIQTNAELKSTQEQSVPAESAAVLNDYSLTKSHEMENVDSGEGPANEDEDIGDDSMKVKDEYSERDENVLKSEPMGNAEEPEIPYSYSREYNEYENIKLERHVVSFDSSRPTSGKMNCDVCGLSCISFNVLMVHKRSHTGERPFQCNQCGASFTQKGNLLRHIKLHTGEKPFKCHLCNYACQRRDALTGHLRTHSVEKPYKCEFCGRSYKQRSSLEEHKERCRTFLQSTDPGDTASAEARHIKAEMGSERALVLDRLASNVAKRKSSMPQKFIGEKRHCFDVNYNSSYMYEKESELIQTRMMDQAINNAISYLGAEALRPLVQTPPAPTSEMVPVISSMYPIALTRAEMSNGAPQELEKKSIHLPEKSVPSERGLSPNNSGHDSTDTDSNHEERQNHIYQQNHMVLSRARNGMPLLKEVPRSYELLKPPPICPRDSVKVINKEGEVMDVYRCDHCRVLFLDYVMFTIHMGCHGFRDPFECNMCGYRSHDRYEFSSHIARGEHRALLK
T4 sequence (Q96SW2 whole entry): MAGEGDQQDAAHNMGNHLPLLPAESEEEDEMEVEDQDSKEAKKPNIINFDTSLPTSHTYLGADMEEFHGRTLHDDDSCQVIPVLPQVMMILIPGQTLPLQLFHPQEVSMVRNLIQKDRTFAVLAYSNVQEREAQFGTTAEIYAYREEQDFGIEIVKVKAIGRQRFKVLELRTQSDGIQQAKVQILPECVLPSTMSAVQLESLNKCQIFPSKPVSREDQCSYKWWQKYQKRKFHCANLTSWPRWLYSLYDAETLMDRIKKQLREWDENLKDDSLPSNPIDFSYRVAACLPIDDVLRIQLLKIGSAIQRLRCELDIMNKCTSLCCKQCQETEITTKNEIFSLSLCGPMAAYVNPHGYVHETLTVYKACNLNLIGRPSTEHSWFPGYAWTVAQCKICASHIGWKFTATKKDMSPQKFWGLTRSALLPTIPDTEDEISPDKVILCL
T4 sequence (Q16531 whole entry partner): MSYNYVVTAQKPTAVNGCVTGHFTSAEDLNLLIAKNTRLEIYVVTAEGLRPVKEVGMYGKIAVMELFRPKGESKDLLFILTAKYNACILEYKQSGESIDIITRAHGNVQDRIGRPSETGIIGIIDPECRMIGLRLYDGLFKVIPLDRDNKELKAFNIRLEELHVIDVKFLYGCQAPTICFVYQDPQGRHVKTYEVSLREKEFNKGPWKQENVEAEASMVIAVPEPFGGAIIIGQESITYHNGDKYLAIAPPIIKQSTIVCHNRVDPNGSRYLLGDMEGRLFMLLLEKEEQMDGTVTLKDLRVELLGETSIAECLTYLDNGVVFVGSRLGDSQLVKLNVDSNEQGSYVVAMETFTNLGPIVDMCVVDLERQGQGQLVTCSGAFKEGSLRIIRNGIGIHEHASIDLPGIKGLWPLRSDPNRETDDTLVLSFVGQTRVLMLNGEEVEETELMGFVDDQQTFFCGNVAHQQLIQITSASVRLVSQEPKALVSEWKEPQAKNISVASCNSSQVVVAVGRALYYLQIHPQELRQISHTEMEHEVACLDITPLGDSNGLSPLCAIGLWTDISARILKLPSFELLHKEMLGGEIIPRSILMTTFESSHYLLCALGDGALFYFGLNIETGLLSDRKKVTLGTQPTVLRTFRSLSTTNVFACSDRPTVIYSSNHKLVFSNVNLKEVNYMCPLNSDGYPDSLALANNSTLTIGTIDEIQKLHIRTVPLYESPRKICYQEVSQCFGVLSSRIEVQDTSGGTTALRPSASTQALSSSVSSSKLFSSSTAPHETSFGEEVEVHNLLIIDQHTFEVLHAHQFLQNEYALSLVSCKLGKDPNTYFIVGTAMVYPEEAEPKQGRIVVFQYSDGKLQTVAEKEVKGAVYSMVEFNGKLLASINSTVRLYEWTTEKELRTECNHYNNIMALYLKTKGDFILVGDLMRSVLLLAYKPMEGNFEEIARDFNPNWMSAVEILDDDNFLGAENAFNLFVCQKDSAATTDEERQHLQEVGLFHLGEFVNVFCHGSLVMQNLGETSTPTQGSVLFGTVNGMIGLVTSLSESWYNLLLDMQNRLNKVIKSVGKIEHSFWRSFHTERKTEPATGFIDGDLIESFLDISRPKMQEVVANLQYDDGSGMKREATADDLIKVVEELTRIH
T1 sequence (P30291 whole entry): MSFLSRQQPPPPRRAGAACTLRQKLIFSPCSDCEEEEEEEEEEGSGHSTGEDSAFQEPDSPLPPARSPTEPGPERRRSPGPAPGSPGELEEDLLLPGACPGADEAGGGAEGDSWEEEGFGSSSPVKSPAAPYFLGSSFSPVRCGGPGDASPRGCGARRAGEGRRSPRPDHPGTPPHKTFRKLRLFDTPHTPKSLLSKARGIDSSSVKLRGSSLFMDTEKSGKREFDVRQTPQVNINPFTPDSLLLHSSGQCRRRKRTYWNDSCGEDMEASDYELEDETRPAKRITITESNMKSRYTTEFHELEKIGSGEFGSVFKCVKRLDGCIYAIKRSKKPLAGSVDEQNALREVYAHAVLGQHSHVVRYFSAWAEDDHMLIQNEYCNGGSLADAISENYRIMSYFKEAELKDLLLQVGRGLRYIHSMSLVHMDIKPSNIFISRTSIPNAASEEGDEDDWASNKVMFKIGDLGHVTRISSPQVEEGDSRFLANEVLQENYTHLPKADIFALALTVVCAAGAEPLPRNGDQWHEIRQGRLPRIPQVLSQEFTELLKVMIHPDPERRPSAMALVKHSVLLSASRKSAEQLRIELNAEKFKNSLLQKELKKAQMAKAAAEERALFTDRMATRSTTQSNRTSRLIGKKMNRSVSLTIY
T1 sequence (Q96SW2 whole entry): as the sequence (Q96SW2 whole entry) above
T1 sequence (Q16531 whole entry partner): as the sequence (Q16531 whole entry partner) above
T3 sequence (Q9UKS7 whole entry): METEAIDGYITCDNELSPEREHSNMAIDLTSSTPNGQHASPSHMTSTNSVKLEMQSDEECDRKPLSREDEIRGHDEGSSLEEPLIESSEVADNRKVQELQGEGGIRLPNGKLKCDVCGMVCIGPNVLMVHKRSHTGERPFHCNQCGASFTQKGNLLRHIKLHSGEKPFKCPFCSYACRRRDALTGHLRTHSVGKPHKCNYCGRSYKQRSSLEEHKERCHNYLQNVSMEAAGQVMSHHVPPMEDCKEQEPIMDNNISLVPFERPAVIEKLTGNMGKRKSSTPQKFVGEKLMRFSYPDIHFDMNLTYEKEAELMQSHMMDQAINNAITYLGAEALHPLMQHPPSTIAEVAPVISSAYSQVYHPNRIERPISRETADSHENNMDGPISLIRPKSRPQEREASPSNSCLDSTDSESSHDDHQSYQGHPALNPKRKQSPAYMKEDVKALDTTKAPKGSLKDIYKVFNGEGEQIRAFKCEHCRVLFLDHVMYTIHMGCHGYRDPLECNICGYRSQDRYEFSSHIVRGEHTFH
T3 sequence (Q96SW2 whole entry): as the sequence (Q96SW2 whole entry) above
T3 sequence (Q16531 whole entry partner): as the sequence (Q16531 whole entry partner) above
T2 sequence (Q13422 whole entry): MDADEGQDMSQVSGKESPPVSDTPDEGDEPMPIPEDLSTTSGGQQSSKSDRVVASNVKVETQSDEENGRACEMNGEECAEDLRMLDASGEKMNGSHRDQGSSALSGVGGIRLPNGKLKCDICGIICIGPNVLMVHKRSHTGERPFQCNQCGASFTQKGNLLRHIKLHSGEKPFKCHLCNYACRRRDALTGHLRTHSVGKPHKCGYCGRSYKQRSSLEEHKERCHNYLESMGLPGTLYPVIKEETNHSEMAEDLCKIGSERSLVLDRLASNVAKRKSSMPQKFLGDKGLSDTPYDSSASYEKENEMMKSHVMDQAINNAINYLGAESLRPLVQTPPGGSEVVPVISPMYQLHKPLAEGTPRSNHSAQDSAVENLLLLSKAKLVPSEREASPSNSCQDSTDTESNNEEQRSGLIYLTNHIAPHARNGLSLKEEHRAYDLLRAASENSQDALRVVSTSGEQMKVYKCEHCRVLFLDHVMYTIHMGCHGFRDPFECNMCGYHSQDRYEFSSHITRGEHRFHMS
T2 sequence (Q96SW2 whole entry): as the sequence (Q96SW2 whole entry) above
T2 sequence (Q16531 whole entry partner): as the sequence (Q16531 whole entry partner) above
T7 sequence (Q96SW2 whole entry): as the sequence (Q96SW2 whole entry) above
T5 sequence (P48729 whole entry): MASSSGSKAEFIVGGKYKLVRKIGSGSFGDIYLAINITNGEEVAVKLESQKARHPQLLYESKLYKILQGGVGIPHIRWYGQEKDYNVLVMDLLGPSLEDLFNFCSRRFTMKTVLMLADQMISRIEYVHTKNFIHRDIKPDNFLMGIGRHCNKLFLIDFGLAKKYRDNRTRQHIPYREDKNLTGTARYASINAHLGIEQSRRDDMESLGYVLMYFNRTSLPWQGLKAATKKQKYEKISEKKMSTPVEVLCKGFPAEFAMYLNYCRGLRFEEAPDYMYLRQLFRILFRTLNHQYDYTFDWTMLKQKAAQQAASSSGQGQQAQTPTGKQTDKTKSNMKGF
T5 sequence (Q96SW2 whole entry): as the sequence (Q96SW2 whole entry) above
T5 sequence (Q16531 whole entry partner): as the sequence (Q16531 whole entry partner) above

SMILES	Weel substrate protein remaining % (WEE1)	IKZF 1 substrate protein remaining % (IKZF1)	IKZF2 substrate protein remaining % (IKZF2)	IKZF3 substrate protein remaining % (IKZF3)	CK1a substrate protein remaining % (CK1α)	GSPT1 substrate protein remaining % (GSPT1)	IC50 [1]	IC50 (MM.1R)	IC50 (Jurkat)	IC50 (CAL-62)	IC50 [2]
O=C1CCC(N2Cc3cc(CN4CCN(c5nccc(Cl)c5Cl)CC4)ccc3C2=O)C(=O)N1 (stereo not shown) [GT-04532, 3-(5-((4-(3,4-dichloropyridin-2-yl)piperazin-1-yl)methyl)-1-oxoisoindolin-2-yl)piperidine-2,6-dione]	A (0% ≤ substrate protein remaining % ≤ 80%)	A (0% ≤ substrate protein remaining % ≤ 80%)	A (0% ≤ substrate protein remaining % ≤ 80%)	A (0% ≤ substrate protein remaining % ≤ 80%)	A (0% ≤ substrate protein remaining % ≤ 80%)	A (0% ≤ substrate protein remaining % ≤ 80%)	500 to 1000 nM	10 to 50 nM	10 to 50 nM	10 to 50 nM	10 to 50 nM
O=C1CCC(N2Cc3cc(CN4CCN(c5cncc(Cl)c5Cl)CC4)ccc3C2=O)C(=O)N1 (stereo not shown) [GT-04538, 3-(5-((4-(4,5-dichloropyridin-3-yl)piperazin-1-yl)methyl)-1-oxoisoindolin-2-yl)piperidine-2,6-dione]	A (0% ≤ substrate protein remaining % ≤ 80%)	A (0% ≤ substrate protein remaining % ≤ 80%)	A (0% ≤ substrate protein remaining % ≤ 80%)	A (0% ≤ substrate protein remaining % ≤ 80%)	A (0% ≤ substrate protein remaining % ≤ 80%)	A (0% ≤ substrate protein remaining % ≤ 80%)	< 500 nM	100 to 500 nM	50 to 100 nM	100 to 500 nM	50 to 100 nM
O=C1CCC(N2Cc3cc(CN4CCN(c5cc(F)ccc5F)CC4)ccc3C2=O)C(=O)N1 (stereo not shown) [GT-04539, 3-(5-((4-(2,5-difluorophenyl)piperazin-1-yl)methyl)-1-oxoisoindolin-2-yl)piperidine-2,6-dione]	A (0% ≤ substrate protein remaining % ≤ 80%)	A (0% ≤ substrate protein remaining % ≤ 80%)	A (0% ≤ substrate protein remaining % ≤ 80%)	A (0% ≤ substrate protein remaining % ≤ 80%)	A (0% ≤ substrate protein remaining % ≤ 80%)	A (0% ≤ substrate protein remaining % ≤ 80%)	500 to 1000 nM	10 to 50 nM	10 to 50 nM	50 to 100 nM	10 to 50 nM
O=C1CCC(N2Cc3cc(CN4CCN(c5c(F)cccc5F)CC4)ccc3C2=O)C(=O)N1 (stereo not shown) [GT-04540, 3-(5-((4-(2,6-difluorophenyl)piperazin-1-yl)methyl)-1-oxoisoindolin-2-yl)piperidine-2,6-dione]	A (0% ≤ substrate protein remaining % ≤ 80%)	A (0% ≤ substrate protein remaining % ≤ 80%)	A (0% ≤ substrate protein remaining % ≤ 80%)	A (0% ≤ substrate protein remaining % ≤ 80%)	B (80%< substrate protein remaining %≤ 100%)	A (0% ≤ substrate protein remaining % ≤ 80%)	500 to 1000 nM	100 to 500 nM	50 to 100 nM	100 to 500 nM	50 to 100 nM
Cc1ccc(N2CCN(Cc3ccc4c(c3)CN(C3CCC(=O)NC3=O)C4=O)CC2)s1 (stereo not shown) [GT-04546, 3-(5-((4-(5-methylthiophen-2-yl)piperazin-1-yl)methyl)-1-oxoisoindolin-2-yl)piperidine-2,6-dione]	A (0% ≤ substrate protein remaining % ≤ 80%)	A (0% ≤ substrate protein remaining % ≤ 80%)	A (0% ≤ substrate protein remaining % ≤ 80%)	A (0% ≤ substrate protein remaining % ≤ 80%)	A (0% ≤ substrate protein remaining % ≤ 80%)	A (0% ≤ substrate protein remaining % ≤ 80%)	500 to 1000 nM	100 to 500 nM	50 to 100 nM	10 to 50 nM	100 to 500 nM
